The text below walks through data of patent US20130259842A1, “STABLE REPROGRAMMED CELLS” (priority 2010, published 2013).

In this assay the test system is piPSC lines. The experiment in a line: Chemical reprogramming of stable intermediate cell lines. The class given is cell-based, mouse. As for the experimental part:
A subset of piPS cell lines were treated with RepSox (E-616452) (25 μM), AZA (500 μM), or both for 48 hours. For 2i treatment, CHIR99021 (Stemgent) was used at 3 μM and PD0325901 (Stemgent) was used at 1 μM. Oct4::GFP+ colonies were scored 12 days after the beginning of chemical treatment. Treatments were performed in mES media containing FBS unless otherwise noted.
10× bright field image merged with Oct4::GFP. The concentration of DMSO equals 0.2%.
piPSC or iPSC were plated on irradiated feeders or 0.1% gelatin, and grown in mES media treated with RepSox (E-616452) (25 μM), AZA (500 μM), or both for 48 hours. For 2i treatment, CHIR99021 (Stemgent) was used at 3 μM and PD0325901 (Stemgent) was used at 1 μM. Oct4::GFP+ colonies were scored 12 days after the beginning of chemical treatment. Treatments were performed in mES media containing FBS unless otherwise noted.
To examine whether multiple piPSC lines could be further reprogrammed to a fully pluripotent state, piPSC were cultured in the presence of RepSox, a known inhibitor of Tgf-β signalling previously described to reprogram intermediate cells (Ichida et al., 2009), 2i-treatment, combined chemical inhibition of Mek/Erk and GSK3 signaling (Silva et at, 2008), or the DNA methyl-transferase inhibitor 5′AzaC.

Structures are written as SMILES.

As for `Cc1cccc(-c2[nH]ncc2-c2ccc3ncccc3n2)n1` [RepSox], the “reprogramming scored by presence of Oct4::GFP positive colonies” value (25 μM RepSox, 2i = CHIR99021 3 μM + PD0325901 1 μM, exposed 48 hours, scored 12 days later) is “a subset of piPSC lines reprogram”. Also, the “further reprogramming to fully reprogrammed iPS cells as determined by the expression of Nanog” value (25 μM for 48 hours, piPSC lines D, F, G, and E, Nanog RT-PCR at 96 hours) is “underwent further reprogramming to fully reprogrammed iPS cells”.
